In assay [1] the target is T1, Amine oxidase [flavin-containing] A (Homo sapiens, UniProt P21397).
T1 sequence (P21397 whole entry): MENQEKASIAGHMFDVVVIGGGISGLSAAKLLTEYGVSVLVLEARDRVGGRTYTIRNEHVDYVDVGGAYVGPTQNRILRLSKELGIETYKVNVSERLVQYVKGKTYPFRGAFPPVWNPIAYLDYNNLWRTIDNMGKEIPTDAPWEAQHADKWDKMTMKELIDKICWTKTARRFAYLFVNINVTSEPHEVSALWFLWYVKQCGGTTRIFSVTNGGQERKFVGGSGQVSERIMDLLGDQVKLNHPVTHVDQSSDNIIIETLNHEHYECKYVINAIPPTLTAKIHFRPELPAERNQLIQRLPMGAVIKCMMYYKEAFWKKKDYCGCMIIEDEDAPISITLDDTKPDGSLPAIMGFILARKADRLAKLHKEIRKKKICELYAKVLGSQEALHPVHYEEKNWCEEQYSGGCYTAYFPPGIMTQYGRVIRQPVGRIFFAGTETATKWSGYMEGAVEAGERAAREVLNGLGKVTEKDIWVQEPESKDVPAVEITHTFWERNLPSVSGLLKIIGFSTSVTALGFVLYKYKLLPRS
Description: In vitro MAO-A/B Inhibition Assay. The procedure:
(§1) The inhibitory activities of flavones were determined in vitro by using fluorescent probe method following the general procedure described in the literature. [Li et al., Nat. Commun., 5:3276]

The target in assay [2] is T2, Amine oxidase [flavin-containing] B (Homo sapiens, UniProt P27338).
T2 sequence (P27338 whole entry): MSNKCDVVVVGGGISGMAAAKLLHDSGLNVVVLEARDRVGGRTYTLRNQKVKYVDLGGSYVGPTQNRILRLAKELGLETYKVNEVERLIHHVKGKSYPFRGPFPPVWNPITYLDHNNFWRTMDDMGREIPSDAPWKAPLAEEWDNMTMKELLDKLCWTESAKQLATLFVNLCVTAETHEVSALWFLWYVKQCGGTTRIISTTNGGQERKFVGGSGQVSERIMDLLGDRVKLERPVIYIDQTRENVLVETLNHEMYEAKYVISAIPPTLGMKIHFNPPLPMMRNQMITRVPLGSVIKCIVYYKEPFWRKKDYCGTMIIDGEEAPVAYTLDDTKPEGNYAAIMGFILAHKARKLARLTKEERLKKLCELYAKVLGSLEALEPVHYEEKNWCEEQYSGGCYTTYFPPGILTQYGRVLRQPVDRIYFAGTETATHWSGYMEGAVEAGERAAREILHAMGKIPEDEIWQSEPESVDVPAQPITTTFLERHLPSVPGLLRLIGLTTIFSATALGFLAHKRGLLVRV
The assay is described as follows: In vitro MAO-A/B Inhibition Assay. The procedure:
as §1

As a reminder, the IC50 is the midpoint of a concentration-inhibition curve. As to `O=c1cc(-c2ccccc2)oc2ccc(Cn3nncc3CNc3ccc(Cl)cc3)cc12` [6-((5-(((4-chlorophenyl)amino)methyl)-1H-1,2,3-triazol-1-yl)methyl)-2-phenyl-4H-chromen-4-one (Az2k1)], the IC50 amounted to 334 µM in assay [1] and 176 µM in assay [2].

Take `O=C(NCc1cn(Cc2ccc3oc(-c4ccccc4)cc(=O)c3c2)nn1)c1ccccc1` [N-((1-((4-oxo-2-phenyl-4H-chromen-6-yl)methyl)-1H-1,2,3-triazol-4-yl)methyl)benzamide (Az1k1)]: the IC50 came to 184 µM in assay [1] and 111 µM in assay [2].

On to `O=C(NCc1cn(Cc2ccc3oc(-c4ccc(Cl)cc4)cc(=O)c3c2)nn1)c1ccc(Cl)cc1` [4-chloro-N-((1-((2-(4-chlorophenyl)-4-oxo-4H-chromen-6-yl)methyl)-1H-1,2,3-triazol-4-yl)methyl)benzamide (Az2k3)], for which the IC50 in assay [1] was determined as 372 µM; in assay [2], 47 µM.

As to `O=C(CCCCc1cn(Cc2ccc3oc(-c4ccccc4)cc(=O)c3c2)nn1)Nc1ccccc1` [5-(1-((4-oxo-2-phenyl-4H-chromen-6-yl)methyl)-1H-1,2,3-triazol-4-yl)-N-phenylpentanamide (Az1k8)], the 50% inhibitory concentration (IC50) was found to be 327 µM in assay [1] and 139 µM in assay [2].

Take `Cc1ccc(C(=O)NCc2cn(Cc3ccc4oc(-c5ccccc5)cc(=O)c4c3)nn2)cc1` [4-methyl-N-((1-((4-oxo-2-phenyl-4H-chromen-6-yl)methyl)-1H-1,2,3-triazol-4-yl)methyl)benzamide (Az1k2)]: the concentration for half-maximal inhibition (IC50) in assay [1] came out at 727 µM; in assay [2], 98 µM.

`O=C(CCc1cn(Cc2ccc3oc(-c4ccccc4)cc(=O)c3c2)nn1)Nc1ccc(F)cc1` [N-(4-fluorophenyl)-3-(1-((4-oxo-2-phenyl-4H-chromen-6-yl)methyl)-1H-1,2,3-triazol-4-yl)propanamide (Az1k6)]: the IC50 in assay [1] was found to be 738 µM; in assay [2], 134 µM.

With `Cc1ccc(NCc2cnnn2Cc2ccc3oc(-c4ccccc4)cc(=O)c3c2)cc1` [2-phenyl-6-((5-((p-tolylamino)methyl)-1H-1,2,3-triazol-1-yl)methyl)-4H-chromen-4-one (Az1k18)], the 50% inhibitory concentration (IC50) in assay [1] is 109 µM; in assay [2], 77.4 µM.

`O=C(CCc1cn(Cc2ccc3oc(-c4ccccc4)cc(=O)c3c2)nn1)Nc1ccccc1` [3-(1-((4-oxo-2-phenyl-4H-chromen-6-yl)methyl)-1H-1,2,3-triazol-4-yl)-N-phenylpropanamide (Az1k4)]: the IC50 in assay [1] came out at 266 µM; in assay [2] it was 124 µM.

Take `O=c1cc(-c2ccccc2)oc2ccc(Cn3cc(CNc4ccc(Cl)cc4)nn3)cc12` [6-((4-(((4-chlorophenyl)amino)methyl)-1H-1,2,3-triazol-1-yl)methyl)-2-phenyl-4H-chromen-4-one (Az1k20)]: the concentration for half-maximal inhibition (IC50) in assay [1] worked out at 334 µM; in assay [2], 176 µM.

(Values after BindingDB's records for doi:10.1111/cbdd.12841 (Zhejiang University of Technology, 2017).)
